Results as given in patent US20080096868A1, “1,4 Substituted Pyrazolopyrimidines as Kinase Inhibitors” (priority 2004, published 2008).

Biological target: T1, EphB4 kinase (Homo sapiens, UniProt P54760)
T1 construct: made in house; host or cells: Sf9 or Sf21 insect cells (baculovirus)
T1 sequence (P54760 566-987): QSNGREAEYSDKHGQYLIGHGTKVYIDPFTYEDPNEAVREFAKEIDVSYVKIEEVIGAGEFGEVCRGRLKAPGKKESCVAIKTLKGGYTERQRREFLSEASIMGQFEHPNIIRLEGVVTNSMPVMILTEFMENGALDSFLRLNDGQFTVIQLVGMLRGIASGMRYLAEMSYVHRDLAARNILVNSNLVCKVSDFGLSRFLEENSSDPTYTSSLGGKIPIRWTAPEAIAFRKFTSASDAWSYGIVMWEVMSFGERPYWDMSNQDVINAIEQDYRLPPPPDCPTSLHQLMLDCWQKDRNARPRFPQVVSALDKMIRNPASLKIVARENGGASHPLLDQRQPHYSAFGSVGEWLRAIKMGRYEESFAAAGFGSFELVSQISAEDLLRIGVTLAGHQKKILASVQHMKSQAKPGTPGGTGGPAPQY
Assay: Inhibition of EphB4 kinase activity (33P incorporation into poly(Glu,Tyr), filter assay)
Type: biochemical
Settings: purified GST-EphB4, 2.0-3.0 μM ATP, poly(Glu,Tyr) 4:1; read-out: IC50 (μmol/l), Inhibition of EphB4 kinase
Source text: Generation of Bac-to-Bac™ (Invitrogen Life Technologies, Basel, Switzerland) GST-fusion expression vectors: Entire cytoplasmatic coding regions of the EphB-class are amplified by PCR from cDNA libraries derived from human placenta or brain, respectively. Recombinant baculovirus are generated that express the amino acid region 566-987 of the human EphB4 receptor (SwissProt Database, Accession No. P54760). GST sequence is cloned into pFastBac1® vector (Invitrogen Life Technologies, Basel, Switzerland) and PCR amplified. cDNAs encoding EphB4-receptor domains, respectively are cloned in frame 3′prime to the GST sequence into this modified FastBac1 vector to generate pBac-to-Bac™ donor vectors. Single colonies arising from the transformation are inoculated to give overnight cultures for small scale plasmid preparation. […] By automated sequencing the inserts and approximately 50 bp of the flanking vector sequences are confirmed on both strands.
Production of viruses: Viruses for each of the kinases are made according to the protocol supplied by GIBCO if not stated otherwise. In brief, transfer vectors containing the kinase domains are transfected into the DH10Bac cell line (GIBCO) and plated on selective agar plates. Colonies without insertion of the fusion sequence into the viral genome (carried by the bacteria) are blue. Single white colonies are picked and viral DNA (bac-mid) isolated from the bacteria by standard plasmid purification procedures. Sf9 cells or Sf21 cells are then transfected in 25 cm^2 flasks with the viral DNA using Cellfectin reagent according to the protocol. […]
Protein kinase assays: The activities of protein kinases are assayed in the presence or absence of inhibitors, by measuring the incorporation of ^33P from [γ^33P]ATP into a polymer of glutamic acid and tyrosine (poly(Glu,Tyr)) as a substrate. […] Membranes are counted after drying at ambient temperature, mounting in Packard TopCount96-well frame, and addition of 10 μL/well of Microscint™ (Packard). […]

Row | IC50 [µmol/L] | Compound
1 | 0.16 | COc1ccc(-n2ncc3c(Nc4ccccc4C)ncnc32)cc1 [Example 21, [1-(4-Methoxy-phenyl)-1H-pyrazolo[3,4-d]pyrimidin-4-yl]-o-tolyl-amine]
2 | 0.5 | COc1ccc(-n2ncc3c(Nc4cc(F)ccc4C)ncnc32)cc1 [Example 23, (5-Fluoro-2-methyl-phenyl)-[1-(4-methoxy-phenyl)-1H-pyrazolo[3,4-d]pyrimidin-4-yl]-amine]
3 | 0.4 | Cc1cccc(C)c1Nc1nc(CCCN(C)C)nc2c1cnn2-c1ccccc1 [Example 27, [6-(3-Dimethylamino-propyl)-1-phenyl-1H-pyrazolo[3,4-d]pyrimidin-4-yl]-(2,6-dimethyl-phenyl)-amine]
